Experimental findings from article PMC2233662 (The Journal of General Physiology, 2001) are described below.

In the assay the target is r-InsP3R-3 (recombinant rat type 3 InsP3R) (Rattus norvegicus, UniProt Q63269). Put plainly: single-channel patch clamp of outer nuclear membrane of isolated oocyte nuclei. Format: cell-based.
Sequence of r-InsP3R-3 (recombinant rat type 3 InsP3R) (Q63269 whole entry): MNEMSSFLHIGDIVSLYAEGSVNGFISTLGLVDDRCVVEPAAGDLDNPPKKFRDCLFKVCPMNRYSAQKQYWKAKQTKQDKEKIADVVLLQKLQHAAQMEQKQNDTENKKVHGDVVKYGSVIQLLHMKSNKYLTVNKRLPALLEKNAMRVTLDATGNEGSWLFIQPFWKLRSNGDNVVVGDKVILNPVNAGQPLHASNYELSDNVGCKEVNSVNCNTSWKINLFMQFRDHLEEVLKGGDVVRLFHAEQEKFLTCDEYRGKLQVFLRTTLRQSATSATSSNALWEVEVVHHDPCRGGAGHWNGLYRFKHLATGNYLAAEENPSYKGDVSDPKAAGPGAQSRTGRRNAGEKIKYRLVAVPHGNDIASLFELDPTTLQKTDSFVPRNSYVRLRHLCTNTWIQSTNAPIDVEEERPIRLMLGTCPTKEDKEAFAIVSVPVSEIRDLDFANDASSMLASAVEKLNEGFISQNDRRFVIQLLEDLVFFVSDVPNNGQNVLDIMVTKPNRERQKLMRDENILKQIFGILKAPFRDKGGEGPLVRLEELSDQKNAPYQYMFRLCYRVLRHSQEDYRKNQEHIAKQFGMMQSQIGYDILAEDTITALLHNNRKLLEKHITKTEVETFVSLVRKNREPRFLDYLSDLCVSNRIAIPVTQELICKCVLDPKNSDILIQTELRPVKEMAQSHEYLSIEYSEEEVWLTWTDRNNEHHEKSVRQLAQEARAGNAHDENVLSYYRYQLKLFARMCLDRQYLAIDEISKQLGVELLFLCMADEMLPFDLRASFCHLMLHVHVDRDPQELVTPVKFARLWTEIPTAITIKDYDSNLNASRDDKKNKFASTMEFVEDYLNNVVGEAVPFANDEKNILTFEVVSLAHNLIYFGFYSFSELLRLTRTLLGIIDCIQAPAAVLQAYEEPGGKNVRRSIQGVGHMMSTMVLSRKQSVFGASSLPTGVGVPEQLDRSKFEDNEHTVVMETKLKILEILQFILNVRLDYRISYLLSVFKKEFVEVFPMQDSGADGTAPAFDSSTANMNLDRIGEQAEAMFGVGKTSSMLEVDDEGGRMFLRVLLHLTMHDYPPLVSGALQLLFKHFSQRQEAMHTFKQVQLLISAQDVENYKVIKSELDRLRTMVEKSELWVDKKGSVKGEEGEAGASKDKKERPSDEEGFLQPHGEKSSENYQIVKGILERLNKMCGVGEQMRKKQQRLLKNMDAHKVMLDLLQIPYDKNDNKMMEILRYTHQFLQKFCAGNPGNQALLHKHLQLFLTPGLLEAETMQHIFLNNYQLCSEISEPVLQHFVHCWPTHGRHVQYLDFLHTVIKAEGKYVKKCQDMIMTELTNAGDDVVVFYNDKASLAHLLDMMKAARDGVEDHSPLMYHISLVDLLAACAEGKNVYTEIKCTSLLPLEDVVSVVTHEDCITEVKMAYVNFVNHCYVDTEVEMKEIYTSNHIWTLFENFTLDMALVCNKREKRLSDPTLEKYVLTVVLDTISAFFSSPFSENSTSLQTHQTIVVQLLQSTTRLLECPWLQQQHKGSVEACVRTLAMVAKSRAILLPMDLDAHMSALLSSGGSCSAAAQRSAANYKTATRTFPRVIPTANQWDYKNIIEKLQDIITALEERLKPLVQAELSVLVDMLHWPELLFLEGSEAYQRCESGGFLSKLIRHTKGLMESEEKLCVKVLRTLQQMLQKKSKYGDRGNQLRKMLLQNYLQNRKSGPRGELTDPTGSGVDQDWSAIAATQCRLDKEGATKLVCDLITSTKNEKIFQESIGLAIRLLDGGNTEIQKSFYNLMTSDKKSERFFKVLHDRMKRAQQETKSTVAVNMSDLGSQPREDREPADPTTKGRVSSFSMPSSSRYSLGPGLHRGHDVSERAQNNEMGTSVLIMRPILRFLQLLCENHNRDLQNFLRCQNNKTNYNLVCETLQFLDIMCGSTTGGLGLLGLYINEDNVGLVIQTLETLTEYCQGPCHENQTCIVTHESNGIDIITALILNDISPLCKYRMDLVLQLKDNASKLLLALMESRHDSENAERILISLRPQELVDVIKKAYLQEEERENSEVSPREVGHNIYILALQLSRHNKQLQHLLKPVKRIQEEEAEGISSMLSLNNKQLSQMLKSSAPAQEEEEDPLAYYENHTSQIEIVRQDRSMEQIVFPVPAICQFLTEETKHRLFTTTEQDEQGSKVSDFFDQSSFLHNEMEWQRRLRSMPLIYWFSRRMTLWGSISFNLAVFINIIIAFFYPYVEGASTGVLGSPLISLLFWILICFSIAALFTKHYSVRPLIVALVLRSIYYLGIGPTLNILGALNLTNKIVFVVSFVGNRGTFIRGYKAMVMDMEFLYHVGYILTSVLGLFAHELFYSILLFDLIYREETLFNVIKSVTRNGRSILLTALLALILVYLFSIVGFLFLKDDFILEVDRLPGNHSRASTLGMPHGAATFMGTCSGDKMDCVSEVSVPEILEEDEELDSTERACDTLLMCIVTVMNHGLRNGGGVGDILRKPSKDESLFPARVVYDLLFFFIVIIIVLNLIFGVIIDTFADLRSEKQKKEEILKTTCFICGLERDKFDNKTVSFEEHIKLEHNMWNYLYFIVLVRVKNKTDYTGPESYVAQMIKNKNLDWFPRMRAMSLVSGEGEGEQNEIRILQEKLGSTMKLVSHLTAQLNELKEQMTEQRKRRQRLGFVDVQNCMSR

Consider `O=P(O)(O)O[C@@H]1[C@H](O)[C@H](O)[C@@H](OP(=O)(O)O)[C@H](OP(=O)(O)O)[C@H]1O` [InsP3], for which the EC50 was determined as 55 ± 6 nM.

As usually defined, the EC50 is the concentration that produces a half-maximal response.
